“Also recorded” adds a separate entry of the source.

The results in this text go back to publication PMC10495264 (Nature Cell Biology, 2023).

In assay [1] the target is T1, mTORC1 (Homo sapiens, UniProt P42345).
T1 construct: endogenous mTORC1 complexes were purified from HEK293FT cells; endogenous in cells; host or cells: HEK293FT (immunoprecipitation of endogenous mTOR); the 4E-BP1 substrate was made in E. coli BL21 RP
The assay can be described thus: mTORC1 complex stability/composition, mTOR co-immunoprecipitation of Raptor and mLST8. The conditions noted are these: 1 mM Mal-CoA added to cell lysates before immunoprecipitation. The method, then: For the mammalian endogenous protein co-immunoprecipitation experiments, cells of a near-confluent 10-cm dish were lysed in CHAPS IP buffer (50 mM Tris pH 7.5, 0.3% CHAPS detergent, 150 mM NaCl, 50 mM NaF, 2 mM Na-vanadate and 0.011 g ml^−1 β-glycerophosphate) supplemented with 1×PhosSTOP phosphatase inhibitors and 1×EDTA-free cOmplete protease inhibitors (11873580001, Roche) for 10 min on ice. The samples were clarified by centrifugation (20,000g, 15 min, 4 °C) and the supernatants were subjected to immunoprecipitation by the addition of 3 μl of each antibody, incubation at 4 °C with rotation for 3 h, followed by incubation (4 °C with rotation) with 30 μl of a pre-washed Protein A agarose bead slurry (cat. no. 11134515001, Roche) for an additional hour. The beads were then washed four times with CHAPS IP wash buffer (50 mM Tris pH 7.5, 0.3% CHAPS detergent, 150 mM NaCl and 50 mM NaF) and boiled in 1×SDS loading buffer. A portion of the samples was kept aside as the input before the addition of antibodies. The samples were analysed by SDS–PAGE and the presence of co-immunoprecipitated proteins was detected by immunoblotting with the appropriate specific antibodies.
To test whether Mal-CoA influences mTORC1 complex stability/composition, 1 mM Mal-CoA lithium salt solution was added to the lysates before the immunoprecipitation of mTOR, as described earlier. […]

In assay [2] the test system is mTORC1. Briefly: mTORC1 activity in HEK293FT cells (WT and knockout lines), phosphorylation of S6K, 4E-BP1, Grb10, TFEB by immunoblot. It is filed as cell-based, human. The method, then:
Data represent the median fluorescence intensity of OPP Alexa Fluor 488; n = 6 biological replicates from two independent experiments. b,c,e,g,i,k,l, Data are the mean ± s.e.m. *P < 0.05, **P < 0.005, ***P < 0.0005. […] Source numerical data and unprocessed blots are provided. Source data
Amino-acid-starvation experiments were carried out as described before[42],[43]. […] For the lipid depletion experiments, cells were cultured in medium containing 10% charcoal-stripped FBS (A3382101, Thermo Fisher Scientific), instead of full FBS, for 24 h before treatments with FASN inhibitors were performed. For FA supplementation, each FA was first conjugated to 10% FA-free BSA (fraction V; cat. no. 10735086001, Roche) for 1 h at 50 °C in a 50:50 volumetric ratio. The BSA-conjugated C16:0, C16:1, C18:1 and C18:2 FAs (100 μM) were then added to the media both 16 h previous to and at the start of the treatment with FASN inhibitors.
For standard SDS–PAGE and immunoblotting experiments, cells from a well of a 12-well plate were lysed in 250 μl of ice-cold Triton lysis buffer (50 mM Tris pH 7.5, 1% Triton X-100, 150 mM NaCl, 50 mM NaF, 2 mM Na-vanadate and 0.011 g ml^−1 β-glycerophosphate) supplemented with 1×PhosSTOP phosphatase inhibitors (cat. no. 4906837001, Roche) and 1×cOmplete protease inhibitors (cat. no. 11836153001, Roche) for 10 min on ice. The samples were clarified by centrifugation (20,000g, 15 min, 4 °C) and the supernatants were boiled in 1×SDS sample buffer (5×SDS sample buffer: 350 mM Tris–HCl pH 6.8, 30% glycerol, 600 mM DTT, 12.8% SDS and 0.12% bromophenol blue). The band intensities were quantified using the ImageJ software.
Background: In western blotting, separated proteins are transferred to a membrane and probed.

With `CC(C)(COP(=O)(O)OP(=O)(O)OCC1OC(n2cnc3c(N)ncnc32)C(O)C1OP(=O)(O)O)C(O)C(=O)NCCC(=O)NCCSC(=O)CC(=O)O` (stereo not drawn) [Mal-CoA, malonyl-CoA], the “mTORC1 stability (interaction of mTOR with Raptor and mLST8)” value on mTORC1 [1] is given as “did not influence”. For the same compound, the “p-S6K(T389)/S6K, Mean” value with mTORC1 [2] (ED Fig. 4n, relative to DMSO) worked out at 0.5757. In addition, in the assay with mTORC1 [2] (HEK293FT, 250 μM Mal-CoA in medium, 30 min), the “mTORC1 activity after exogenous addition of Mal-CoA” value is recorded as “significant drop; also recorded: capable of downregulating”.
